Assay results as given in PubChem BioAssay AID720587 (Broad Institute, 2013).

System: A673 Ewing sarcoma viability, CellTiter-Glo ATP luminescence, 72 h
Assay: A673 Ewing sarcoma viability loss – cell-based, CellTiter-Glo luminescence, cherry-pick retest, confirmation (AID 720587)

First: CNC[C@H](CC1CCCCC1)NC[C@H](CO)NCCc1cccc(C(F)(F)F)c1
Second: O=C(NC(c1ccc(F)cc1)c1ccc2ccccc2n1)C1CCN(Cc2cccc(C(F)(F)F)c2)CC1 (centres undefined)
The AC35 of the first is 1.6-fold lower: 9.23 µM for the first, 14.6 µM for the second.

Going from CC(C)(C)c1ccc(Oc2ccc(N)cn2)cc1 to CC(C)(C)c1ccc(Cn2c(=O)cnc3ccccc32)cc1, the AC35 rises from 5.13 µM to 12.5 µM (2.4-fold).

First: Cc1ccc(S(=O)(=O)Nc2ccc3c(c2)C(=O)N([C@@H](C)CO)C[C@H](C)[C@@H](CN(C)Cc2ccc(C(F)(F)F)cc2)OCCCC[C@@H](C)O3)cc1
Second: C[C@H](CO)N1C[C@H](C)[C@H](CN(C)Cc2ccc(C(F)(F)F)cc2)Oc2ccc(NC(=O)CCCCCC(=O)Nc3ccccc3N)cc2CC1=O
The AC35 of the first is 1.7-fold higher: 13.8 µM for the first, 7.93 µM for the second.

Compared with O=c1[nH]c(=O)n(C2C[C@H](O)[C@@H](CO)O2)cc1C(F)(F)F (some centres undefined), COC(=O)C[C@H]1C=C[C@@H](NC(=O)Nc2ccc(C(F)(F)F)cc2)[C@H](CO)O1 is 6.8-fold higher in AC35: 3.17 µM for the first, 21.6 µM for the second.

First: CC(C)c1oc(=O)cc2c1[C@@H](O)[C@H]1OC(=O)[C@@]3(C)CC[C@@H](O)[C@@]2(C)C13 (some centres undefined)
Second: C[C@]12CC[C@H](O)C[C@H]1CC[C@@H]1[C@@H]2C[C@@H](O)[C@]2(C)[C@@H](C3=CC(=O)OC3)CC[C@]12O
The AC35 of the first is 18-fold higher: 19.3 µM for the first, 1.1 µM for the second.

First: COc1cc2c(OC(C)=O)c3c(c(-c4ccc5c(c4)OCO5)c2cc1OC)C(=O)OC3
Second: CCCN1C/C(=C/c2ccc3c(c2)OCO3)C(=O)/C(=C/c2ccc3c(c2)OCO3)C1
The AC35 of the first is 170-fold lower: 0.0216 µM for the first, 3.77 µM for the second.

C/C(=N\NC(=O)c1n[nH]c2c1CCC2)c1cccs1 and Cc1noc(C)c1C(=O)Nc1sccc1C(N)=O are within 1.5-fold of each other in AC35: 19.3 µM for the first, 14.3 µM for the second.

COc1ccc(S(=O)(=O)N2CCCc3nc(-c4ccc(F)cc4)ccc32)cc1 and COc1ccc(-c2ccc3c(c2)[C@H]2[C@H](CCN2S(=O)(=O)c2ccc(OC)cc2)[C@@H](CO)N3C)cc1 are within 1.5-fold of each other in AC35: 5.35 µM for the first, 6.76 µM for the second.

First: CCCCC[C@H](C)N1C[C@H](COCc2ccccc2)Oc2cc(N3CC[C@@H](N(C)C)C3)ccc2S1(=O)=O
Second: C[C@@H]1CN([C@H](C)CO)S(=O)(=O)c2ccc(C#Cc3ccncc3)cc2O[C@@H]1CN(C)C(=O)Nc1ccc2c(c1)OCO2
The AC35 of the first is 1.7-fold lower: 11.7 µM for the first, 19.4 µM for the second.

COC(=O)C[C@H]1CC[C@H]2[C@@H](COc3ccc(NC(=O)Nc4cccc(Cl)c4)cc3C(=O)N2C)O1 and COC(=O)C[C@@H]1CC[C@@H]2[C@@H](COc3ccc(NC(=O)Nc4cccc(Cl)c4)cc3C(=O)N2C)O1 are within 1.5-fold of each other in AC35: 14.7 µM for the first, 10.3 µM for the second.

Compared with Nc1nc(N)c2c(ccc3nccc32)[nH]1, Cc1ccc(N2C(=O)c3cccc4c(N)ccc(c34)C2=O)c2cccnc12 is 120-fold lower in AC35: 7.01 µM for the first, 0.0576 µM for the second.

Compared with C=C(C(=O)c1ccccc1)C(C(=C)C(=O)c1ccccc1)c1ccc(OC)cc1, N#C[C@H]1[C@H](c2ccc(-c3ccccc3F)cc2)[C@@H](CO)N1C(=O)Cc1ccccc1 is 2.5-fold higher in AC35: 4.04 µM for the first, 10.2 µM for the second.

First: COC(=O)C1=C(C)N(Cc2cccc(C(F)(F)F)c2)C(=NCc2ccc(OC)cc2)NC1c1cccc(F)c1 (centres undefined)
Second: COc1cccc(-c2cccc(-c3nc(C(=O)NCC(F)(F)F)cc4c3[C@H](CCO)N([S@@](=O)C(C)(C)C)C4)c2)c1
The AC35 of the first is 1.9-fold lower: 4.46 µM for the first, 8.4 µM for the second.

Compared with N/C(=C\C(=O)c1cc(Cl)ccc1O)C(Cl)(Cl)Cl, CC(=NNc1ccc2ccccc2n1)c1ccccc1O is 3.5-fold higher in AC35: 4 µM for the first, 13.9 µM for the second.

First: O=c1cc(-c2ccccc2)oc2ccc3ccccc3c12
Second: COc1ccc(/C=C2\Oc3ccccc3C2=O)cc1
The AC35 of the first is 3.9-fold lower: 5.83 µM for the first, 22.9 µM for the second.

Going from COc1ccccc1-c1ccc(OCCCN2CCC(C(O)(c3ccccc3)c3ccccc3)CC2)cc1 to COc1ccccc1C(CCNCc1ccc(N(C)C)cc1)c1ccc(OC(C)C)cc1 (centres undefined), the AC35 falls from 9.43 µM to 4.19 µM (2.3-fold).

CC(C)N1C/C(=C/c2cccnc2)C(=O)/C(=C/c2cccnc2)C1 and O=C(NCc1cccnc1)C1Cc2c(-c3ccc(Cl)cc3)ccnc2O1 (centres undefined) are within 1.5-fold of each other in AC35: 10.5 µM for the first, 7.98 µM for the second.

First: CCS(=O)(=O)N1Cc2ccccc2CC1C(=O)Nc1nnc(SCc2ccc(C#N)cc2)s1 (centres undefined)
Second: CN1c2ccc(-c3ccc(C#N)cc3)cc2[C@H]2[C@H](CCN2S(=O)(=O)c2cccc(F)c2)[C@@H]1CO
The AC35 of the first is 2.8-fold higher: 12.5 µM for the first, 4.45 µM for the second.

COc1cc(/C=N\Nc2nc(-c3ccc(C)cc3)c(NC(C)=O)s2)ccc1O and O=C(O)c1ccc(N/N=C/c2ccc3nccnc3c2)cc1 are within 1.5-fold of each other in AC35: 14.4 µM for the first, 15 µM for the second.

C[C@H]1CN([C@@H](C)CO)C(=O)Cc2cc(NC(=O)CCC(F)(F)F)ccc2O[C@H]1CN(C)Cc1ccc(C(=O)Nc2ccccc2N)cc1 and C[C@@H]1CN([C@H](C)CO)C(=O)c2cc(NC(=O)Nc3ccccc3)ccc2O[C@@H]1CN(C)Cc1ccc(C(=O)Nc2ccccc2N)cc1 are within 1.5-fold of each other in AC35: 8.75 µM for the first, 9.7 µM for the second.

Compared with C=C1C(=O)OC2C1CCC(C)C1C=CC(=O)C12C (centres undefined), C[C@@H]1O[C@@H](O[C@@H]2C=C3CC[C@@H]4C(CC[C@]5(C)[C@@H](c6ccc(=O)oc6)CC[C@]45O)[C@@]3(C)CC2)[C@H](O)[C@H](O)[C@H]1O (some centres undefined) is 320-fold lower in AC35: 7.41 µM for the first, 0.0233 µM for the second.

Cc1[nH][nH]c(=O)c1C(c1c(C)[nH][nH]c1=O)c1cn(Cc2ccc(Cl)c(Cl)c2)c2ccccc12 and C[C@@H]1CN([C@@H](C)CO)C(=O)Cc2cc(NS(=O)(=O)c3cccs3)ccc2O[C@H]1CN(C)Cc1ccc(Cl)c(Cl)c1 are within 1.5-fold of each other in AC35: 9.8 µM for the first, 12.5 µM for the second.

Compared with COC1C(O)C(C)OC(OC2C(Oc3cccc4c(O)c5c(=O)oc6ccc(C)c7c(=O)oc(c34)c5c67)OC(C)C(O)C2O)C1O (centres undefined), C[C@H]1O[C@@H](O[C@H]2[C@@H](O)C[C@H](O[C@H]3[C@@H](O)C[C@H](O[C@H]4CC[C@@]5(C)[C@H](CC[C@@H]6[C@@H]5C[C@@H](O)[C@]5(C)[C@@H](C7=CC(=O)OC7)CC[C@]65O)C4)O[C@@H]3C)O[C@@H]2C)C[C@H](O)[C@@H]1O is 37-fold lower in AC35: 6.33 µM for the first, 0.173 µM for the second.

Going from CN(C)c1ncnc2c1ccn2C1OC(CO)C(O)C1O (centres undefined) to N=c1ccn2c(n1)O[C@H]1[C@H](O)[C@@H](CO)O[C@H]12, the AC35 falls from 2.94 µM to 0.74 µM (4-fold).

First: COc1ccc(C2=Nn3c(nnc3-c3ccccc3F)SC2)cc1OC1CCOC1 (centres undefined)
Second: COc1ccc(OC)c(-c2nnc3n2N=C(c2ccc(OC)c(OC4CCCC4)c2)CS3)c1
The AC35 of the first is 5-fold higher: 13.5 µM for the first, 2.71 µM for the second.

Compared with Cc1cc(C(=O)Nc2ccc3c(c2)C(=O)N(C)[C@@H]2CC[C@H](CC(=O)N[C@H](C)c4ccccc4)O[C@H]2CO3)no1, O=C(Nc1ccc2c(c1)OCO2)N1C[C@@H]2N[C@H](C1)C2c1ccc(C=Cc2ccccc2)cc1 (some centres undefined) is 2.8-fold lower in AC35: 12.9 µM for the first, 4.6 µM for the second.

First: CCN1CCS/C1=C\C=C\C1=[N+](CC)CCS1
Second: CCc1cccc2c(C(=O)CN3C(=O)NC4(CCCCC4)C3=O)c[nH]c12
The AC35 of the first is 1.8-fold higher: 16.1 µM for the first, 8.95 µM for the second.

Cc1ccc(C(C(=O)NCc2ccco2)N(C(=O)CNC(=O)c2cccs2)c2c(C)cc(C)cc2C)cc1 (centres undefined) and C[C@@H]1CN([C@@H](C)CO)C(=O)c2cccc(NC(=O)Nc3cccc4ccccc34)c2O[C@@H]1CN(C)Cc1ccc(C(=O)Nc2ccccc2N)cc1 are within 1.5-fold of each other in AC35: 14.6 µM for the first, 14.8 µM for the second.

CN=c1scc(-c2ccccc2F)n1/N=C/c1ccc[nH]1 and O=c1cc(CN2CCN(Cc3ccccc3)CC2)c2ccc(O)c(O)c2o1 are within 1.5-fold of each other in AC35: 10.1 µM for the first, 8.02 µM for the second.

Going from CCc1ccc2oc(C(=O)N3CCN(c4ccccc4OC)CC3)cc(=O)c2c1 to Oc1c(C(c2ccc(Cl)cc2)N2CCCC2)cc(Cl)c2cccnc12 (centres undefined), the AC35 falls from 14.3 µM to 1.47 µM (9.7-fold).

First: C/C(=C\c1ccccc1)C(=O)N1CCC=CC1=O
Second: O=C(C[C@@H]1C[C@H]2c3cc(NS(=O)(=O)c4ccc(F)cc4)ccc3O[C@H]2[C@H](CO)O1)NCc1ccc(-c2ccccc2)cc1
The AC35 of the first is 2.1-fold higher: 9 µM for the first, 4.21 µM for the second.

CCCCCCCCCCCCCCCCn1cc[n+](C)c1 and Cc1c(Cc2ccc3c(c2)OCO3)sc(NC(=O)C(C)(C)C)c1C#N are within 1.5-fold of each other in AC35: 12.6 µM for the first, 14.9 µM for the second.
